Test results reported in PubChem BioAssay (NCI).
Where “and” joins values, the source holds several entries; their conditions need not be identical. Equal values may be shown once.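 How tested: cells in 96-well plates exposed to compound for 48 hours at five concentrations. The concentration for 50% growth inhibition is given as GI50. TGI denotes the concentration required for complete inhibition of growth.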

How the values were obtained:
Assay in all cases: NCI tumour cell line growth inhibition, 48 h
CAKI-1 renal = system: CAKI-1 renal
SK-OV-3 ovarian = system: SK-OV-3 ovarian
SF-295 CNS = system: SF-295 CNS
OVCAR-4 ovarian = system: OVCAR-4 ovarian
U251 CNS = system: U251 CNS
M14 melanoma = system: M14 melanoma
UACC-257 melanoma = system: UACC-257 melanoma
NCI-H226 lung = system: NCI-H226 lung
CCRF-CEM leukemia = system: CCRF-CEM leukemia
HL-60(TB) leukemia = system: HL-60(TB) leukemia

| SMILES | TGI (CAKI-1 renal) | TGI (SK-OV-3 ovarian) | TGI (SF-295 CNS) | TGI (OVCAR-4 ovarian) | TGI (U251 CNS) | TGI (M14 melanoma) | TGI (UACC-257 melanoma) | GI50 (CAKI-1 renal) | GI50 (SK-OV-3 ovarian) | GI50 (NCI-H226 lung) | TGI (NCI-H226 lung) | GI50 (SF-295 CNS) | GI50 (OVCAR-4 ovarian) | GI50 (U251 CNS) | GI50 (M14 melanoma) | GI50 (UACC-257 melanoma) | GI50 (CCRF-CEM leukemia) | TGI (CCRF-CEM leukemia) | TGI (HL-60(TB) leukemia) | GI50 (HL-60(TB) leukemia) |
| --- | --- | --- | --- | --- | --- | --- | --- | --- | --- | --- | --- | --- | --- | --- | --- | --- | --- | --- | --- | --- |
| Cc1ccccc1S(=O)(=O)OC1NS(=O)(=O)c2ccccc21 (configuration not stated) | > 100 µM | > 100 µM | > 100 µM | > 100 µM | > 100 µM | > 100 µM | > 100 µM | – | – | – | – | – | – | – | – | – | – | – | – | – |
| OCC#Cc1ccccc1C#Cc1ccccc1 | 25.5 µM | 33.9 µM | 32.8 µM | 45.2 µM | 25.2 µM | 22.5 µM | 32 µM | 12.2 µM | 16.6 µM | 15 µM | 29.4 µM | 15.5 µM | 17 µM | 11.7 µM | 10.6 µM | 16.2 µM | 7.14 µM | 39.8 µM | – | – |
| O=S(=O)(CCn1c(Sc2ccccc2)c(Sc2ccccc2)c2ccccc21)c1ccccc1 | > 100 µM | > 100 µM | > 100 µM | > 100 µM | > 100 µM | > 100 µM | – | – | – | – | > 100 µM | – | – | – | – | – | – | > 100 µM | > 100 µM | – |
| C#CC1(O)CCC2C3CCc4cc(Oc5nc(F)nc(-c6c7ccccc7c7sc8ccccc8n67)n5)ccc4C3CC[C@@]21C (some centres not stated) | > 100 µM | – | > 100 µM | > 100 µM | > 100 µM | 98.3 µM | > 100 µM | – | – | – | > 100 µM | – | – | – | – | – | – | > 100 µM | > 100 µM | – |
| CC(C)=Cc1cc(C(=O)Nc2ccc(Cl)c(Cl)c2)nc(N)n1 | > 100 µM | – | > 100 µM | > 100 µM | > 100 µM | > 100 µM | > 100 µM | – | – | – | > 100 µM | – | – | – | – | – | – | – | > 100 µM | – |
| COc1cc2c(c(OC)c1OC)-c1ccc(OC)c(=O)cc1C(NC(=O)c1ccc(N=[N+]=[N-])cc1)CC2 (configuration not stated) | 0.243 µM | – | 0.0582 µM | > 100 µM | 4 µM | 31.2 µM | > 100 µM | – | – | – | 3.78 µM | – | – | – | – | – | – | > 24.5 µM | 0.441 µM | – |
| COc1cc2c3c(n(C)c(=O)c2cc1OC)-c1cc2c(cc1/C3=C\CCCN)OCO2 | 8.62 µM | > 100 µM | 8.15 µM | 52.7 µM | 10.6 µM | > 100 µM | > 100 µM | 1.99 µM | 41 µM | 9.33 µM | 31.6 µM | 1.83 µM | 17.9 µM | 1.66 µM | 12.4 µM | 30.5 µM | – | – | – | – |
| CC(C)OP(=O)(OC(C)C)C(=NCCN=C(NNc1ccc([N+](=O)[O-])cc1)P(=O)(OC(C)C)OC(C)C)NNc1ccc([N+](=O)[O-])cc1 | 25.4 µM | – | – | > 100 µM | 91.2 µM | > 100 µM | > 100 µM | – | – | – | 93.3 µM | – | – | – | – | – | – | > 100 µM | > 100 µM | – |
| O=C(/C=C/c1ccncc1)c1cc(Cl)ccc1O | 38.5 µM | 87.7 µM | 34.8 µM | 88.1 µM | 26.2 µM | 34.1 µM | 49.7 µM | 14.3 µM | 27.4 µM | 22.7 µM | 58 µM | 15.3 µM | 27.3 µM | 12.7 µM | 17.5 µM | 22.2 µM | 7.95 µM | 36.2 µM | – | – |
| COc1ccc(/C=C(/C#N)n2nnc3cccc(F)c32)cc1 | 11.8 µM | – | 17.8 µM | > 100 µM | > 100 µM | 3.89 µM | > 100 µM | 0.733 µM | – | 2.87 µM | 53.8 µM | 2.35 µM | 2 µM | 1.79 µM | 0.467 µM | 77.8 µM | 0.949 µM | > 100 µM | 16.2 µM | 0.527 µM |
| CCN1CCN(c2nc(C)cc(N(CCNc3ccnc4cc(Cl)ccc34)Cc3ccc4c(c3)OCO4)n2)CC1 | – | 8.73 µM | 3.38 µM | 11.4 µM | 3.12 µM | 3.44 µM | 3.6 µM | – | 2.99 µM | 15 µM | 33.6 µM | 1.76 µM | 2.58 µM | 1.56 µM | 1.84 µM | 1.83 µM | 2.12 µM | 5.88 µM | 4.22 µM | 2.1 µM |
| [Cl-].[La+3].[O-]/N=C(\c1ccccc1)c1ccccn1.[O-]/N=C(\c1ccccc1)c1ccccn1.[O-]/N=C(\c1ccccc1)c1ccccn1 | > 91.2 µM | > 100 µM | > 100 µM | – | > 100 µM | 41.4 µM | > 100 µM | 48.4 µM | 50.8 µM | 21.6 µM | 51.2 µM | 27.7 µM | – | 32 µM | 20.2 µM | 41.1 µM | 25.7 µM | > 100 µM | > 100 µM | 33.5 µM |
| COc1ccc(S(=O)(=O)NNS(C)(=O)=O)cc1 | > 100 µM | – | > 100 µM | > 100 µM | > 100 µM | > 100 µM | > 100 µM | – | – | – | > 100 µM | – | – | – | – | – | – | > 100 µM | > 100 µM | – |
| CN(C)CCSC1=Nc2ccc(Cl)cc2C(c2ccccc2Cl)=NC1 | 31.5 µM and > 100 µM | 33.6 µM and > 100 µM | 31.5 µM and > 100 µM | > 100 µM | 28.1 µM and > 100 µM | 36.4 µM and > 100 µM | 26.3 µM and > 100 µM | 15.1 µM and 79.5 µM | 16.9 µM and 63.1 µM | – | – | 16 µM and 68.7 µM | – | 13.6 µM and 89.5 µM | 15.8 µM and > 100 µM | 13.4 µM and > 100 µM | 21.5 µM and 46.2 µM | 82.1 µM and > 100 µM | 66.5 µM and 80.4 µM | – |
| COc1ccc(-c2nnc(COc3ccc(NC(=O)Nc4cc(C(F)(F)F)cc(C(F)(F)F)c4)cc3F)o2)cc1 | – | 12.7 µM | 5.21 µM | 8.53 µM | 3.45 µM | 11.4 µM | 5.51 µM | – | 3.76 µM | 2.63 µM | 9.69 µM | 2.11 µM | 2.29 µM | 1.54 µM | 2.97 µM | 2.08 µM | 2.86 µM | 11.6 µM | 6.02 µM | 2.34 µM |
| OC(c1nc2ccccc2[nH]1)C(O)C(O)C(O)c1nc2ccccc2[nH]1 (configuration not stated) | > 100 µM | > 100 µM | > 100 µM | > 100 µM | > 100 µM | > 100 µM | > 100 µM | – | – | – | > 100 µM | – | – | – | – | – | – | – | > 100 µM | – |
| c1ccc(COc2cccc3ccc[n+](Cc4ccccc4)c23)cc1 | – | 73.7 µM | 37.9 µM | 45.7 µM | > 100 µM | 60.2 µM | 6.34 µM | – | – | – | 25.5 µM | – | – | – | – | – | – | > 100 µM | 5.75 µM | – |
